Data set [1] is described as follows: Body weight in LU-01-0030 xenograft studies. The settings on record: Day 34 study. In kind it is in vivo, mice. On the procedure:
The in vivo efficacies of Compounds (1) and (2) were evaluated alone and in combination with three consecutive days of focused IR in the primary LU-01-0030 NSCLC subcutaneous xenograft model. The dose-dependent anti-tumor activity of Compound (2) alone and in combination with focused beam IR was evaluated in the LU-01-0030 model. […] Mice in the combination treatment groups were monitored (without treatment) for up to 90 days as some mice had no evidence of tumor burden.

A further data set has as its system primary human tumors. Kind of data set: Primary tumor chemosensitivity assay (TCA), Cell Titer-Glo, Bliss. In kind it is cell-based. The settings on record: Compound (2) with bleomycin; gastric, pancreatic tumors. The method, then: Primary human tumors tested in vitro may provide a better indicator of efficacy of DNA PK inhibition than immortalized cancer cell lines due to their increased heterogeneity and closer proximity to the patient tumor from which they were derived. […] Dissociated cells from mouse-passaged tumors were cultured for 6 days after combination exposure and then assessed for viability using the Cell Titer-Glo assay. The Bliss Additivity statistical model was used to determine the degree of synergy, additivity, or antagonism of each combination treatment.
A general note: In ATP-based viability assays light output follows the ATP content of the culture.

The nature of data set [2]: Body weight in OE-19 xenograft studies. In kind it is in vivo. The settings on record: PO 100 mg/kg bid (0, 4 h) q7dx2, 2 Gy IR q7dx2 ([…]); Day 7. The method, then: The OE-19 cell line xenograft model was used to evaluate the efficacy of Compounds (1) and (2) alone and in combination with IR. Two cycles of treatment were administered (Day 0 and Day 7) as performed in the OD26749 model above.

The test system of data set [3] is ST-02-0004 primary GEJ tumor xenograft. Kind of data set: ST-02-0004 primary GEJ tumor xenograft efficacy with focused IR. The class given is in vivo. The settings on record: for % T/C (Day 45): 5 mg/kg paclitaxel, 25 mg/kg carboplatin q7dx3 (−[…]). The method, then: The in vivo activities of Compounds (1) and (2) were compared in combination with focused beam IR in a primary gastric cancer subcutaneous xenograft model. In the ST 02 0004 model, focused IR was administered on three consecutive days alone and in combination with Compound (1) or Compound (2).
The anti-tumor activity of Compound (2) in combination with focused-beam IR and the standard of care agents, paclitaxel and carboplatin, was also evaluated in the ST 02 0004 model. Treatment with paclitaxel, carboplatin, and IR was administered once per week for three weeks alone or in combination with Compound (2).
(§1) In Tables 14 and 15, for example, PO bid (0, 4 h) indicates Compound (2) is administered twice (bid) at time point 0 and then 4 hours after; IR (0.25 h) qdx3 indicates radiation is administered 15 minutes (0.25 h) after the administration of Compound (2) (0 h), and once a day for 3 days (qdx3); q7dx2 indicates once a week for two weeks; qod indicates every other day twice (e.g., Day 1 and Day 3); and paclitaxel q7dx3 (−0.25 h), carboplatin q7dx3 (−0.25 h) indicates administration of paclitaxel and carboplatin 15 minutes prior to the administration of Compound (2), followed by additional administration of Compound (2) after 4 hours after the first administration of Compound (2).

Data set [4] concerns LU-01-0030 primary NSCLC subcutaneous xenograft. In words: LU-01-0030 primary NSCLC xenograft efficacy with focused IR. The class given is in vivo, mice. The method, then: The in vivo efficacies of Compounds (1) and (2) were evaluated alone and in combination with three consecutive days of focused IR in the primary LU-01-0030 NSCLC subcutaneous xenograft model. The dose-dependent anti-tumor activity of Compound (2) alone and in combination with focused beam IR was evaluated in the LU-01-0030 model.
as §1

A short description of data set [5]: Blood exposure in OD26749 bridging study. The class given is in vivo, nude mice. The settings on record: nude, mouse, whole blood; 100 mg/kg PO bid (0 and 4 h) combination groups with 2 Gy whole body IR.
For data set [6], the system named is OD26749 primary NSCLC xenograft. Kind of data set: OD26749 primary NSCLC xenograft efficacy with whole body IR. In kind it is in vivo, nude mice. The settings on record: bridging study; Compound (2) PO 50 mg/kg bid (0, 4 h), 2 Gy ([…]) qdx3. On the procedure: The in vivo efficacies of Compounds (1) and (2) in combination with whole body IR were examined in the OD26749 primary NSCLC (non-small cell lung cancer) and the OE-19 GEJ cell line xenograft models. In these studies, Compounds (1) and (2) were formulated with 16% captisol/1% PVP/1% HPMC E5 pH2.
The in vivo efficacy of Compound (1) was evaluated in the primary OD26749 NSCLC subcutaneous xenograft model. […] […] Compound (1) was administered PO (tid at 0, 3, and 7 h) at 100 mg/kg alone or with a single 2 Gy dose of whole body IR at 3.25 h. […] Compound (1) in combination with 2 Gy whole body IR induced significant tumor regression (% T/Ti of −75; P<0.01) compared to IR alone.
The efficacies of Compounds (1) and (2) in combination with whole body IR (2 Gy) were evaluated in the OD26749 primary NSCLC xenograft model at a Compound ([…]) and Compound (2) dose levels of 50 mg/kg and 100 mg/kg PO bid (0 and 4 h). Two cycles of whole body IR (2 Gy) were given 15 min after the first compound administration (0.25 hour). Control animals were administered vehicle PO bid (0 and 4 h). […]
as §1

Data set [7] is described as follows: Body weight in OD26749 xenograft studies. The class given is in vivo, nude mice. The settings on record: bridging study; Compound (2) PO 50 mg/kg bid (0, 4 h), 2 Gy ([…]) qdx3; Day 1.

As usually defined, the AUC is the area under the concentration-time curve, a measure of exposure.

Regarding `[2H]c1nc(C)nc([2H])c1-c1cc(NC[C@@H](C)c2cccc3c(C(=O)NC)ccnc23)ncn1` [Compound (2), (S)-N-methyl-8-(1-((2′-methyl-4′,6′-dideutero-[4,5′-bipyrimidin]-6-yl)amino)propan-2-yl)quinoline-4-carboxamide], the “Max. body wt loss (%)” value is listed as −6.59% in data set [1] (PO 25 mg/kg bid (0, 4 h) qdx3, 2 Gy IR ([…]) qdx3, Day 3); −4.62% in data set [1] (PO 25 mg/kg qdx3, 2 Gy IR ([…]) qdx3, Day 1); −6.93% in data set [1] (PO 50 mg/kg bid (0, 4 h) qdx3, 2 Gy IR ([…]) qdx3, Day 3); −1.11% in data set [1] (PO 50 mg/kg bid (0, 4 h) qdx3, no IR, Day 9); −4.66% in data set [1] (PO 50 mg/kg qdx3, 2 Gy IR ([…]) qdx3, Day 3); −6.50% in data set [2]. Besides, the “Max. body wt loss (%)” value in data set [7] is recorded as −2.10%. Besides, the “tumors additive or synergistic / tumors tested” value in the data set on primary human tumors was 20/20. The “tumors strongly synergistic / tumors tested” value in the data set with primary human tumors was 3/20. For the same molecule, the “% T/C (Day 45)” value in data set [3] (2 Gy IR qdx3 ([…]), Compound (2) PO 25 mg/kg bid (0, 4 h) qdx3) stood at 11.1%; in data set [3] (2 Gy IR qdx3 ([…]), Compound (2) PO 50 mg/kg bid (0, 4 h) qdx3), 2.5%; in data set [3] (Compound (2) PO 50 mg/kg bid (0, 4 h) qdx3, no IR), 95.4%. For the same molecule, the “% T/C (Day 34)” value in data set [3] (Compound (2) PO 25 mg/kg bid (0, 4 h) qdx3, 2 Gy IR qdx3 ([…])) amounted to 17.4%; in data set [3] (Compound (2) PO 100 mg/kg bid (0, 4 h) qdx3, 2 Gy IR qdx3 ([…])), 9.2%; in data set [3] (Compound (2) PO 100 mg/kg bid (0, 4 h) qdx3, no IR) it was 67.6%; in data set [4] (PO 50 mg/kg bid (0, 4 h) qdx3, no IR) it was 98.3%. The “% T/Ti (Day 34)” value is reported as −67.1% in data set [4] (PO 25 mg/kg bid (0, 4 h) qdx3, 2 Gy IR ([…]) qdx3); −96.3% in data set [4] (PO 50 mg/kg bid (0, 4 h) qdx3, 2 Gy IR ([…]) qdx3); −96.9% in data set [4] (PO 50 mg/kg qdx3, 2 Gy IR ([…]) qdx3). Also, in data set [5], the AUC was found to be 58200 ng·h/mL. In data set [6], the “% T/C (Day 22)” value is given as 27.2%.

(Values after patent publication US10039761B2, “Co-crystals and pharmaceutical compositions comprising the same” (Vertex Pharmaceuticals Incorporated, priority 2013, dated 2018).)
